Source: patent publication US20100004303A1, “TREATMENT OF ENDOCRINE DYSFUNCTION USING IRON CHELATORS” (NOVARTIS AG, priority 2006, published 2010)

Experiments:
[1] = tested on: HJV−/− mice with iron overload; assay: Pancreas iron (ICP-OES) in HJV−/− mice with iron overload; format: in vivo
Experimental: The spontaneous iron loading and the effect of 4-[3,5-bis(2-hydroxyphenyl)-[1,2,4]triazol-1-yl]benzoic acid (Compound I) has been examined upon the removal of iron in HJV−/− mice with iron overload.
Methods: Inductively-Coupled Plasma Optical Emission Spectrometry (ICP-OES, measurement of elemental iron) determinations in spleen and pancreas were performed at week 8 (study start), 14, 20 and 28 in HJV−/− and wild type (wt) mice (n=6−8). Starting at week 20 three groups of HJV−/− animals received daily 0 (vehicle), 30 or 100 mg/kg of 4-[3,5-bis(2-hydroxyphenyl)-[1,2,4]triazol-1-yl]benzoic acid, control wt-mice remained untreated. Iron loading was observed up to 28 weeks, including vehicle group, and the effects of 4-[3,5-bis(2-hydroxyphenyl)-[1,2,4]triazol-1-yl]benzoic acid were assessed by comparing the 28-week groups. MRI R2* measurements were performed using a 4.7 MR imager.

pancreatic Min6 cells = assay: Labile iron exposure of pancreatic Min6 cells: iron accumulation, cell damage, viability; format: cell-based
From the text: (§1) Among the functions affected by metal-evoked ROS are cell permselectivity (calcein leakage), mitochondrial membrane potential (JC1 test), electron transport activity (Alamar Blue) and cell viability (calcein-propidium iodide). It can be observed that administration of deferasirox at therapeutically achievable doses ([…]): […]

pituitary Att20 cells = assay: Labile iron exposure of pituitary Att20 cells: iron accumulation, cell damage, viability; format: cell-based
From the text: as §1

At20 pituitary cells = assay: Cytoprotective effect on acutely iron-overloaded At20 pituitary cells (calcein retention, Alamar-Blue, ACTH levels); format: cell-based; details: cell culture conditions, pharmacological chelator concentrations
From the text: A major cause of biological damage associated with tissue iron accumulation is the cellular acquisition of circulating labile plasma iron (LPI) by endocytic mechanisms and ensuing metal-catalyzed oxidations. Endocrine cells are presumed to have endocytic abilities and/or high susceptibility to the formation of reactive oxygen intermediates (ROIs), particularly those generated in the presence of labile iron. As these properties might be implicated in the early onset of endocrine dysfunctions observed in transfusional hemosiderosis, a major goal of iron chelation therapy is to prevent iron ingress into endocrine cells and ensuing toxicity and/or removal of cell accumulated iron. Such properties of chelators have been afforded in cardiac cells (Glickstein et al, 2006, Blood In press) by treating LPI-carrying plasma with pharmacological attainable concentrations of orally active iron chelators in clinical practice. […] It has been explored here whether addition of 4-[3,5-bis(2-hydroxyphenyl)-[1,2,4]triazol-1-yl]benzoic acid could rescue acutely-iron-overloaded At20 pituitary cells from iron-toxicity, using fluorescence-plate reader and microscopy-imaging for live monitoring of cell functions and assessing toxicity in terms of: 1. cell integrity (calcein cell retention assay) 2. metabolic activities (mitochondrial Alamar-Blue assay) and 3. intracellular (ACTH) hormone levels.

Diet-induced obese mice = assay: Oral glucose tolerance test and plasma insulin in diet-induced obese mice; format: in vivo; details: compared to the control animals
Experimental: Diet-induced obese mice are used for the study at 21-23 weeks of age. On the first day of the study, animals are fasted at 7:30 a.m. Body weight measurement and basal blood sample collection are conducted at 10:30 a.m. Plasma glucose values are then determined. Animals were assigned into 4 groups (n=10/group) with the plasma glucose values and body weights matched between the 4 groups. At 12 pm, the animals are dosed orally with vehicle (water) or the Compound I at 30 mg/kg or […] respectively. At 1:00 p.m. a blood sample (at 0 min) is taken followed by an oral glucose tolerance test (OGTT) at 1 g/kg (20% glucose in water) at a dose volume of 5 ml/kg. Blood samples are collected at 30, 60 and 120 min following the glucose administration. The animals are refed after the OGTT. […]
Blood samples are taken during the study via tail bleeding. Plasma glucose concentrations are determined using a glucose meter (Ascensia Elite, Bayer Corp., Mishawaka, Ind.). […] Plasma insulin and glucagons levels are determined by Luminex assays using Mouse Endocrine Lincoplex kit (Linco Research, Inc., St. Charles, Mo.). […] Plasma triglyceride, fatty acid and total cholesterol levels are determined using a fluorescent assay based on Amplex Red kit (Molecular Probes, Eugene, Oreg.). […] Effects on cardiovascular diseases can also be assessed by further analysis on treated animals.

subjects with IGM = assay: Multi-center, double-blind, randomized study in subjects with IGM; format: in vivo, human; details: 8 weeks of treatment
From the text: Favorable effects can be verified that confirm that Compound I can restore early phase insulin secretion and reduce post-prandial glucose levels in subjects with IGM, or can prevent or delay the onset of Type 2 diabetes and cardiovascular diseases in subjects with IGM. A multi-center, double-blind, parallel group, randomized study can be conducted in subjects with IGM in order to evaluate the incidence of confirmed hypoglycemia and the effects on prandial glucose associated with the administration of Compound I, or placebo before each main meal during 8 weeks of treatment. […]
Corresponding dosages of Compound I are administered daily depending on the number of main meals (breakfast, lunch, snack, dinner). […] HbA1c is to be measured at baseline and after 8 weeks of treatment (fasting glucose and fructosamine). Samples of blood are to be drawn at 10, 20, […], 60, 120, and 180 minutes after drug administration (time 0) and the glucose and insulin levels to be measured. […]

[2] = model systems and humans; Hershko 2001, Nisbet Brown 2003; cited from earlier work
[3] = 30-100 μM, incubated prior to or post iron-loading (acutely or chronically)
[4] = 30-100 μM, present in the iron loading medium
[5] = 30-100 μm, incubated prior to or post iron-loading (acutely or chronically)

SMILES: O=C(O)c1ccc(-n2nc(-c3ccccc3O)nc2-c2ccccc2O)cc1 [Compound I, 4-[3,5-Bis-(2-hydroxyphenyl)-[1,2,4]-triazol-1-yl]benzoic acid]
- pancreas iron ± SEM ([1]; 30 mg/kg daily from week 20, 28-week group, n = 7): 4.72 ± 0.65 mg/g dry weight
- pancreas iron ± SEM ([1]; 100 mg/kg daily from week 20, 28-week group, n = 6): 3.54 ± 0.55 mg/g dry weight
- pancreas iron levels, effect in words ([1]; 100 mg/kg dose): clear trend to lower levels
- pancreatic iron load, effect in words ([1]; within 8 weeks of treatment): trend to improvement of pancreatic iron load
- cell viability (pancreatic Min6 cells; [3]): increases cell viability
- labile iron raising in cells (pancreatic Min6 cells; [4]): largely prevents labile iron from raising in cells
- iron-evoked cell damage (pancreatic Min6 cells; [5]): reduces iron-evoked cell damage
- cell viability (pituitary Att20 cells; [3]): increases cell viability
- labile iron raising in cells (pituitary Att20 cells; [4]): largely prevents labile iron from raising in cells
- iron-evoked cell damage (pituitary Att20 cells; [5]): reduces iron-evoked cell damage
- At20 endocrine cell viability and functional properties compromised by iron-catalyzed formation of ROIs (At20 pituitary cells): can preserve both At20 endocrine cell viability and functional properties
- plasma insulin levels (Diet-induced obese mice): can show a lowering in plasma insulin levels
- 2 hour prandial glucose levels, HBA1c and fructosamine levels (subjects with IGM): can be reduced
- early phase insulin secretion (subjects with IGM): can be restored
- selective removal of iron [2]: effective in the selective removal of iron
